From patent US20230109010A1, “PESTICIDE COMPOSITIONS WITH SUPRAMOLECULAR STRUCTURES FOR AGRICULTURAL USE” (BPS JUST ENERGY TECHNOLOGY, LLC, priority 2020, published 2023)

Experiments:
[1] = tested on: palmer amaranth; test: Field trial in corn, herbicide applied 3 days after planting, % weed control; assay type: in vivo, Amaranthus palmeri
Protocol: (§1) The herbicides tested were acetochlor and s-metolachlor. Each herbicide was combined at the specified rate with either deionized water or SymMAX™ supramolecular host chemistry that is commercially available from Shotwell Hydrogenics at 15 gallons per acre (GPA). Specified rates for acetochlor were 0.5 parts per acre, 1 part per acre, and 2 parts per acre. […]
(§2) This example was conducted as a 4 replicate, RCBD (randomized control block design) in Quitman, GA. An untreated control was used as a standard that provided no weed control and no phytotoxicity. All treatments were compared to the untreated control. Counted dead weeds and living weeds were used to determine % weed control. The untreated control was also used to determine % crop phytotoxicity for the crop. Typical indications of phytotoxicity include chlorosis, stunting, epinasty, and/or leaf burn.
(§3) The trial ran for 28 days with weekly data assessments taken on % crop phytotoxicity and % weed control of three key species: palmer amaranth (Amaranthus palmeri), fall panicum (Panicum dichotomiflorum) and large crabgrass (Digitaria sanguinalis). The test field was over seeded with weed seed obtained from the University of Georgia prior to corn planting. Treatments were applied 3 days after planting as a broadcast application at various rates ranging from about 0.5 parts per acre to about 2 parts per acre. Tables 1-4 show the % weed control when the weeds are treated with acetachlor. Tables 4-8 show the % weed control when the weeds are treated with s-metolachlor.

[2] = tested on: fall panicum; test: as above; assay type: in vivo, Panicum dichotomiflorum
Protocol: as §1, §2, §3

[3] = tested on: large crabgrass; test: as above; assay type: in vivo, Digitaria sanguinalis
Protocol: as §1, §2, §3

[4] = tested on: palmer amaranth; test: Field trial in corn at V3, broadcast treatment on 2-4 inch weeds, % weed control; assay type: in vivo, Amaranthus palmeri
From the text: (§4) The herbicides tested were glufosinate, glyphosate, and mesotrione. Each herbicide was combined at the specified rate with either deionized water or SymMAX™ supramolecular host water mixture commercially available from Shotwell Hydrogenics at 15 gallons per acre (GPA). Specified rates for glufosinate were 22 ounces per acre, 11 ounces per acre, and 5.5 ounces per acre. Specified rates for glyphosate were 22 ounces per acre, 11 ounces per acre, and 5.5 ounces per acre. Specified rates for mesotrione were 3 ounces per acre, 2 ounces per acre, and 1 ounce per acre.
as §2
(§5) The trial ran for 14 days with weekly data assessments taken on % crop phytotoxicity and % weed control of four key species: palmer amaranth (Amaranthus palmeri), ivyleaf morning glory (Ipomoea hederacea), fall panicum (Panicum dichotomiflorum) and large crabgrass (Digitaria sanguinalis The test field was over seeded with weed seed obtained from the University of Georgia prior to corn planting. Treatments were applied as a broadcast treatment when corn had reached physiological growth stage V3 and weeds were in the 2-4″ size range. Treatments were applied at various rates ranging from about 1 ounce per acre to about 22 ounces per acre. Tables 9-10 show the % weed control when the weeds are treated with glufosinate. Tables 11-12 show the % weed control when the weeds are treated with glyphosphate. Tables 13-14 show the % weed control when the weeds are treated with mesotrione.

[5] = tested on: ivyleaf morning glory; test: as above; assay type: in vivo, Ipomoea hederacea
From the text: as §4, §2, §5

[6] = tested on: fall panicum; test: as above; assay type: in vivo, Panicum dichotomiflorum
From the text: as §4, §2, §5

[7] = tested on: large crabgrass; test: as above; assay type: in vivo, Digitaria sanguinalis
From the text: as §4, §2, §5

[8] = 7 days, acetochlor 0.5 part/acre
[9] = 7 days, acetochlor 2 parts/acre
[10] = 14 days, acetochlor 0.5 part/acre
[11] = 14 days, acetochlor 1 part/acre
[12] = 14 days, acetochlor 2 parts/acre
[13] = 21 days, acetochlor 0.5 part/acre
[14] = 21 days, acetochlor 1 part/acre
[15] = 21 days, acetochlor 2 parts/acre
[16] = 28 days, acetochlor 0.5 part/acre
[17] = 28 days, acetochlor 1 part/acre
[18] = 28 days, acetochlor 2 parts/acre
[19] = 7 days, glufosinate 5.5 ounces/acre
[20] = 7 days, glufosinate 11 ounces/acre
[21] = 7 days, glufosinate 22 ounces/acre
[22] = 14 days, glufosinate 5.5 ounces/acre
[23] = 14 days, glufosinate 11 ounces/acre
[24] = 14 days, glufosinate 22 ounces/acre

In the case of CCOCN(C(=O)CCl)c1c(C)cccc1CC [Acetochlor, acetochlor], the “% WEED CONTROL FOR PALMER AMARANTH” value [1, 8] is reported as 87.0%, the “% WEED CONTROL FOR PALMER AMARANTH” value ([1]; 7 days, acetochlor 1 part/acre) is reported as 88.5% and the “% WEED CONTROL FOR PALMER AMARANTH” value [1, 9] is reported as 93.3%. The “% WEED CONTROL FOR PALMER AMARANTH” value [1, 10] was 82.3%, the “% WEED CONTROL FOR PALMER AMARANTH” value [1, 11] was 87.0% and the “% WEED CONTROL FOR PALMER AMARANTH” value [1, 12] was 97.7%. For the same molecule, the “% WEED CONTROL FOR PALMER AMARANTH” value [1, 13] was 61.7%, the “% WEED CONTROL FOR PALMER AMARANTH” value [1, 14] was 81.0% and the “% WEED CONTROL FOR PALMER AMARANTH” value [1, 15] was 90.0%. For the same molecule, the “% WEED CONTROL FOR PALMER AMARANTH” value [1, 16] was 44.5%, the “% WEED CONTROL FOR PALMER AMARANTH” value [1, 17] was 67.4% and the “% WEED CONTROL FOR PALMER AMARANTH” value [1, 18] was 99.7%. The “% WEED CONTROL FOR FALL PANICUM” value [2, 8] was 65.5%, the “% WEED CONTROL FOR FALL PANICUM” value ([2]; 7 days, acetochlor 1 part/acre) was 69.3% and the “% WEED CONTROL FOR FALL PANICUM” value [2, 9] was 87.3%. For the same molecule, the “% WEED CONTROL FOR FALL PANICUM” value [2, 10] was 49.3%, the “% WEED CONTROL FOR FALL PANICUM” value [2, 11] was 53.0% and the “% WEED CONTROL FOR FALL PANICUM” value [2, 12] was 78.0%. For the same molecule, the “% WEED CONTROL FOR FALL PANICUM” value [2, 13] was 37.6%, the “% WEED CONTROL FOR FALL PANICUM” value [2, 14] was 40.9% and the “% WEED CONTROL FOR FALL PANICUM” value [2, 15] was 81.3%. For the same molecule, the “% WEED CONTROL FOR FALL PANICUM” value [2, 16] was 60.0%, the “% WEED CONTROL FOR FALL PANICUM” value [2, 17] was 57.3% and the “% WEED CONTROL FOR FALL PANICUM” value [2, 18] was 88.0%. For the same molecule, the “% WEED CONTROL FOR LARGE CRABGRASS” value [3, 8] was 69.5%, the “% WEED CONTROL FOR LARGE CRABGRASS” value ([3]; 7 days, acetochlor 1 part/acre) was 74.5% and the “% WEED CONTROL FOR LARGE CRABGRASS” value [3, 9] was 87.0%. The “% WEED CONTROL FOR LARGE CRABGRASS” value [3, 10] was 45.8%, the “% WEED CONTROL FOR LARGE CRABGRASS” value [3, 11] was 49.0% and the “% WEED CONTROL FOR LARGE CRABGRASS” value [3, 12] was 74.5%. For the same molecule, the “% WEED CONTROL FOR LARGE CRABGRASS” value [3, 13] was 45.3%, the “% WEED CONTROL FOR LARGE CRABGRASS” value [3, 14] was 43.0% and the “% WEED CONTROL FOR LARGE CRABGRASS” value [3, 15] was 73.3%. For the same molecule, the “% WEED CONTROL FOR LARGE CRABGRASS” value [3, 16] was 47.8%, the “% WEED CONTROL FOR LARGE CRABGRASS” value [3, 17] was 48.0% and the “% WEED CONTROL FOR LARGE CRABGRASS” value [3, 18] was 92.1%.
With CP(=O)(O)CCC(N)C(=O)O (stereo not drawn) [Glufosinate, glufosinate] the “% WEED CONTROL FOR PALMER AMARANTH” value [4, 19] was 51.5%, the “% WEED CONTROL FOR PALMER AMARANTH” value [4, 20] was 77.9% and the “% WEED CONTROL FOR PALMER AMARANTH” value [4, 21] was 82.6%. The “% WEED CONTROL FOR PALMER AMARANTH” value [4, 22] was 29.0%, the “% WEED CONTROL FOR PALMER AMARANTH” value [4, 23] was 69.3% and the “% WEED CONTROL FOR PALMER AMARANTH” value [4, 24] was 76.1%. The “% WEED CONTROL FOR IVYLEAF MORNINGLORY” value [5, 19] was 16.5%, the “% WEED CONTROL FOR IVYLEAF MORNINGLORY” value [5, 20] was 52.3% and the “% WEED CONTROL FOR IVYLEAF MORNINGLORY” value [5, 21] was 70.1%. For the same molecule, the “% WEED CONTROL FOR IVYLEAF MORNINGLORY” value [5, 22] was 5.1%, the “% WEED CONTROL FOR IVYLEAF MORNINGLORY” value [5, 23] was 41.2% and the “% WEED CONTROL FOR IVYLEAF MORNINGLORY” value [5, 24] was 64.0%. For the same molecule, the “% WEED CONTROL FOR FALL PANICUM” value [6, 19] was 100.0%, the “% WEED CONTROL FOR FALL PANICUM” value [6, 20] was 99.5% and the “% WEED CONTROL FOR FALL PANICUM” value [6, 21] was 100.0%. For the same molecule, the “% WEED CONTROL FOR FALL PANICUM” value [6, 22] was 83.3%, the “% WEED CONTROL FOR FALL PANICUM” value [6, 23] was 92.7% and the “% WEED CONTROL FOR FALL PANICUM” value [6, 24] was 95.5%. For the same molecule, the “% WEED CONTROL FOR LARGE CRABGRASS” value [7, 19] was 100.0%, the “% WEED CONTROL FOR LARGE CRABGRASS” value [7, 20] was 100.0% and the “% WEED CONTROL FOR LARGE CRABGRASS” value [7, 21] was 100.0%. For the same molecule, the “% WEED CONTROL FOR LARGE CRABGRASS” value [7, 22] was 91.8%, the “% WEED CONTROL FOR LARGE CRABGRASS” value [7, 23] was 99.5% and the “% WEED CONTROL FOR LARGE CRABGRASS” value [7, 24] was 100.0%.
